Test results: patent US10513519B2, “Solid forms of (1S,4S)-4-(2-(((3S,4R)-3-fluorotetrahydro-2H-pyran-4-yl)amino)-8-((2,4,6-trichlorophenyl)amino)-9H-purin-9-yl)-1-methylcyclohexane-1-carboxamide and methods of their use” (Signal Pharmaceuticals, LLC, priority 2016, dated 2019)

System: cancer cell lines
Assay: Multiplexed cytotoxicity assay: cell proliferation (relative cell count IC50, GI50)
Type: cell-based
Conditions: Homo sapiens
Procedure: (§1) Cells are grown in RPMI1640, 10% FBS, 2 mM L-alanyl-L-Glutamine, 1 mM Na pyruvate or a special medium in a humidified atmosphere of 5% CO2 at 37° C. Cells are seeded into 384-well plates and incubated in a humidified atmosphere of 5% CO2 at 37° C. Compounds are added 24 h post cell seeding. At the same time, a time zero untreated cell plate is generated. After a 72 hour incubation period, cells are fixed and stained with fluorescently labeled antibodies and nuclear dye to allow visualization of nuclei, apoptotic cells and mitotic cells. Apoptotic cells are detected using an anti-active caspase-3 antibody. Mitotic cells are detected using an anti phospho-histone-3 antibody. Compounds are serially diluted 3.16-fold and assayed over 10 concentrations in a final assay concentration of 0.1% DMSO from the highest test concentration of 10 μM. Automated fluorescence microscopy was carried out using a Molecular Devices ImageXpress Micro XL high-content imager, and images are collected with a 4× objective.
(§2) Sixteen-bit TIFF images are acquired and analyzed with MetaXpress 5.1.0.41 software. Cell proliferation is measured by the signal intensity of the incorporated nuclear dye. The cell proliferation assay output is referred to as the relative cell count. To determine the cell proliferation end point, the cell proliferation data output is transformed to percentage of control (POC) using the following formula: POC=relative cell count(compound wells)/relative cell count(vehicle wells)×100
(§3) GI50 is the concentration needed to reduce the observed growth by half. This is the concentration that inhibits the growth to the level midway between growth in untreated cells and the number of cells seeded in the well (Time zero value). The IC50 values are calculated using nonlinear regression to fit data to a sigmoidal 4 point, 4 parameter One-Site dose response model, where: y(fit)=A+[(B−A)/(1+((C/x)^D))].
as §1, with “In another experiment, cells were grown” for “Cells are grown”, “Cells were” for “Cells are”, “Compounds were” for “Compounds are”, “plate was” for “plate is”, “cells were” for “cells are”, “images were” for “images are”
as §2, with “images were” for “images are”, “proliferation was” for “proliferation is”, “output was” for “output is”
as §3, with “GI50 refers to” for “GI50 is”, “This corresponds to” for “This is”, “values were” for “values are”

[1] = NCI-H446, 72 h, NCIH446, Lung, SCLC, 72 h
[2] = NCI-H460, 72 h, NCIH460, Lung, NSCLC, 72 h
[3] = NCI-H510A, 72 h, NCIH510A, Lung, SCLC
[4] = NCI-H520, 72 h, NCIH520, Lung, NSCLC, 72 h
[5] = NCI-H596, 72 h, NCIH596, Lung, NSCLC, 72 h
[6] = NCI-H661, 72 h, NCIH661, Lung, NSCLC, 72 h
[7] = NTERA-2-cl-D1, 72 h, NTERA2CLD1, Testis, 72 h
[8] = OE19, 72 h, OE19, Head and Neck, Esophageal, 72 h
[9] = OE33, 72 h, OE33, Head and Neck, Esophageal, 72 h
[10] = OVCAR-3, 72 h, OVCAR3, Female GU, Ovary, 72 h
[11] = PANC-1, 72 h, PANC1, Pancreas, 72 h
[12] = PSN1, 72 h, PSN1, Pancreas, 72 h
[13] = RL95-2, 72 h, RL952, Female GU, Uterus, 72 h
[14] = RPMI-6666, RPMI6666 (Hematopoietic and lymphoid, Lymphoma)
[15] = RPMI-7951, RPMI7951 (Skin, Melanoma)
[16] = RPMI-8226, 72 h, RPMI8226, Hematopoietic and lymphoid, Myeloma, 72 h
[17] = RS4-11, RS411 (Hematopoietic and lymphoid, Leukemia)
[18] = Raji, RAJI (Hematopoietic and lymphoid, Lymphoma)
[19] = Rec1, REC1 (Hematopoietic and lymphoid, Lymphoma)
[20] = SAOS-2, 72 h, SAOS2, Soft Tissue, Osteosarcoma, 72 h
[21] = SHP77, 72 h, SHP77, Lung, SCLC, 72 h
[22] = SJRH30, 72 h, SJRH30, Soft Tissue, Sarcoma, 72 h
[23] = SJSA-1, 72 h, SJSA1, Soft Tissue, Osteosarcoma, 72 h
[24] = SK-LMS-1, 72 h, SKLMS1, Soft Tissue, Sarcoma, 72 h
[25] = SK-MEL3, 72 h, SKMEL3, Skin, Melanoma, 72 h
[26] = SK-MEL-1, SKMEL1 (Skin, Melanoma)
[27] = SK-MEL-28, SKMEL28 (Skin, Melanoma)
[28] = SK-MES-1, 72 h, SKMES1, Lung, NSCLC, 72 h

## C[C@]1(C(N)=O)CC[C@@H](n2c(Nc3c(Cl)cc(Cl)cc3Cl)nc3cnc(N[C@@H]4CCOC[C@H]4F)nc32)CC1 [Compound 1, cis-4-[2-{[(3S,4R)-3-fluorooxan-4-yl]amino}-8-(2,4,6-trichloroanilino)-9H-purin-9-yl]-1-methylcyclohexane-1-carboxamide]
NCI-H441, 72 h, NCIH441, Lung, NSCLC, 72 h
  IC50: 1.25 µM
[1]
  GI50: 0.327 µM
  IC50: > 10 µM
[2]
  GI50: > 10 µM
  IC50: > 10 µM
NCI-H508, NCIH508 (Colon)
  GI50: 0.0288 µM
  IC50: 0.0481 µM
[3]
  GI50: 3.7 µM
  IC50: 6.61 µM
[4]
  GI50: 0.991 µM
  IC50: 2.13 µM
[5]
  GI50: 2.75 µM
  IC50: > 10 µM
[6]
  GI50: 1.44 µM
  IC50: 2.64 µM
NCI-H747, NCIH747 (Colon)
  GI50: 0.012 µM
  IC50: 0.0445 µM
[7]
  GI50: 0.044 µM
  IC50: 0.0507 µM
[8]
  GI50: 0.34 µM
  IC50: > 10 µM
[9]
  GI50: 0.063 µM
  IC50: 0.0969 µM
[10]
  GI50: > 10 µM
  IC50: > 10 µM
[11]
  GI50: 0.0416 µM
  IC50: 0.08 µM
PFSK-1, PFSK1 (CNS, Glioma)
  GI50: 0.0234 µM
  IC50: > 10 µM
[12]
  GI50: 0.0083 µM
  IC50: 0.0092 µM
RKOE6, RKOE6 (Colon)
  GI50: 0.0753 µM
  IC50: 0.107 µM
[13]
  GI50: 0.009 µM
  IC50: 0.0599 µM
[14]
  GI50: 0.0801 µM
  IC50: 0.37 µM
[15]
  GI50: 0.0716 µM
  IC50: 0.0945 µM
[16]
  GI50: 1.09 µM
  IC50: 2.48 µM
[17]
  GI50: 0.359 µM
  IC50: 2.96 µM
[18]
  GI50: 0.179 µM
  IC50: > 10 µM
[19]
  GI50: 0.0053 µM
  IC50: 0.193 µM
[20]
  GI50: 3.57 µM
  IC50: 6.88 µM
SCC-4, SCC4 (Head and Neck)
  GI50: 0.0512 µM
  IC50: 0.108 µM
SCC-9, SCC9 (Head and Neck)
  GI50: 0.117 µM
  IC50: 0.28 µM
SCC-25, SCC25 (Head and Neck)
  GI50: 0.0439 µM
  IC50: 0.051 µM
SCaBER, SCABER (Bladder)
  GI50: 0.0665 µM
  IC50: 0.0772 µM
[21]
  GI50: 4.79 µM
  IC50: 5.82 µM
[22]
  GI50: 0.219 µM
  IC50: 1.47 µM
[23]
  GI50: 1.16 µM
  IC50: 2.46 µM
SK-BR-3, SKBR3 (Breast)
  GI50: 6.81 µM
  IC50: 8.45 µM
[24]
  GI50: 0.146 µM
  IC50: 0.166 µM
[25]
  GI50: 0.0284 µM
  IC50: 0.0625 µM
[26]
  GI50: 0.001 µM
  IC50: 0.0291 µM
[27]
  GI50: 0.0279 µM
  IC50: 0.0571 µM
[28]
  GI50: 0.103 µM
  IC50: 0.122 µM
